Test: Squalene degradation test with free-radical initiator V65 (protective factor QS, synergy with tocopherol)
Design: key to QS: QS = degradation rate without stabilizer / degradation rate with it
Settings: squalene content by GC; for QS: 250 ppm test substance in 2% azobis(2,4-dimethylvaleronitrile) in squalene, stored open 30 days at 40° C., QSx=degradation rate0/degradation ratex; for QS + 250 ppm Tocopherol: 250 ppm test substance plus 250 ppm tocopherol in 2% azobis(2,4-dimethylvaleronitrile) in squalene, 30 days at 40° C.
Description: General procedure for determining the synergistic effect of peroxide decomposers used according to the invention with tocopherol
3 ml of a 2% strength solution of azobis(2,4.dimethylvaleronitrile). (V65, Wako Chemical Co.) in squalene are poured together with 250 ppm of test substance (based on the squalene solution) into Fiolax test tubes ([…]) and thoroughly mixed using a laboratory shaker. The samples are then stored open in a circulatory drying cabinet for 30 days at 40° C. At intervals of 7 days, the squalene content of the samples is ascertained using gas chromatography. The reference used is a sample without the […]. The data points are documented in an XY graph and the effectiveness of the test substances is determined by reference to the slope of the decomposition curves in comparison to the reference sample.
A measure of the protective effect of a test compound is the factor QS, which is a measure of how much a stabilizer reduces the degradation rate. QSx=degradation rate0/degradation ratex

| Compound | QS | QS + 250 ppm Tocopherol |
| --- | --- | --- |
| Sc1nccs1 [compound 3] | 2.75 | 4.25 |
| S=c1cc[nH]c(=S)[nH]1 [compound 4] | 1.13 | 2.08 |
| CCCc1cc(O)nc(S)n1 [compound 5] | 2.58 | 4.44 |
| S=C1CSc2ccccc2N1 [compound 6] | 3.03 | 3.75 |
| On1ccccc1=S [compound 7] | 1.47 | 2.58 |
| Sc1nnc(-c2ccccc2)[nH]1 [compound 8] | 1.34 | 1.8 |
| Oc1cccnc1S [compound 9] | 1.66 | 2.25 |
| O=C(O)c1cccnc1S [compound 10] | 1.18 | 1.65 |
| Tocopherol [reference compound] | 1.3 | – |

Source: patent US20080193397A1, “Use of Peroxide Decomposers Method For the Treatment of a Material Other Than the Human Body” (BASF Aktiengesellscaft, priority 2005, published 2008)
